From patent publication US20240101576A1, “HETEROCYCLIC INHIBITORS OF EGFR AND/OR HER2, FOR USE IN THE TREATMENT OF CANCER” (Scorpion Therapeutics, Inc., priority 2020, published 2024)

Assays:
Type in all cases: cell-based
[1] = target: T1, EGFR exon 20 NPG Ins D770_N771 (Ba/F3 cells) (Homo sapiens, UniProt P00533, INS770NPG); experiment: Inhibitor activity on EGFR phosphorylation (pEGFR AlphaLISA, 2 h), Ba/F3 EGFR exon 20 NPG Ins
T1 construct: expressed in transfected cells; host or cells: Ba/F3 (murine pro-B cells), retroviral transduction, puromycin selection, IL3-independent pool
From the text: Example B. Inhibitor Activity on EGFR phosphorylation (pEGFR)
EGFR mutant Ba/F3 cells were generated by transduction with retrovirus containing vectors expressing EGFR L858R, EGFR exon 19del, EGFR L858R/C797S, EGFR exon 20 NPG Ins D770_N771, EGFR exon 20 ASV Ins V769_D770, or EGFR exon 20 SVD Ins D770_N771 genes along with a puromycin selection marker. Transduced cells are selected with puromycin for 7 days and are then be transferred into culture media without Interleukin 3 (IL3). Surviving cells are confirmed to express EGFR by Western blot and maintained as a pool. CUTO14 cells were obtained from Dr. Robert C. Doebele at the University of Colorado. The IC50 date are included in Table 6 and Table 7.
1.1 Cells are harvested from flask into cell culture medium and the cell number counted.
1.2 Cells are diluted with culture medium to the desired density and 40 μL of cell suspension is added into each well of 384-well cell culture plate and the seeding density is 50K cells/well (Ba/F3) or 12.5K cells/well (CUTO14).
2 Compound Preparation and Treatment
2.1 Test compounds are dissolved to 10 mM in a DMSO stock solution. 45 μL of stock solution is transferred to a 384 polypropylene plate (pp-plate). Perform 3-fold, 10-point dilution via transferring 15 μL compound into 30 μL DMSO using a TECAN (EVO200) liquid handler.
2.2 Spin plates at room temperature at 1,000 RPM for 1 minute.
2.3 Transfer 5 nL of diluted compound from compound source plate into the cell plate.
2.4 After compound treatment for 2 hours, perform pEGFR detection by AlphaLISA for compound treatment plates as described in “Detection” section.
3 Detection by pEGFR AlphaLISA (Perkin-Elmer)
3.1 Plates are removed from incubators and equilibrated at room temperature for 10 minutes, and media was removed
3.2 10 μL of lysis buffer is added and plates shaken at 600 rpm for 1 hr.
3.3 Prepare acceptor mix just before use and dispense 5 μL of acceptor mix to all the wells. Shake 350 rpm for Ihr in the dark
3.4 Prepare donor mix under low light conditions prior to use. Dispense 5 μL of donor mix to all the wells. Mix well on the shaker, seal and wrap in aluminum foil and incubate 1.5 hrs at room temperature in the dark
3.5 Transfer 18.5 μL mixture to OptiPlate 384, and read using an Envision. The IC50 date were included in Table 6 and Table 7.

EGFR WT (Ba/F3 cells) = target: T2, EGFR WT (Ba/F3 cells) (Homo sapiens, UniProt P00533); experiment: Inhibitor activity on EGFR-dependent cell growth (CellTiter-Glo, 72 h), Ba/F3 EGFR WT; conditions: read-out: BaF3 WT IC50
T2 construct: expressed in transfected cells; host or cells: Ba/F3 (murine pro-B cells), retroviral transduction, puromycin selection, maintained with EGF
How it was run: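 This growth assay used Ba/F3 cells that depend on wild-type EGFR and are kept in EGF without IL3. Compounds were made up as 10 mM DMSO stocks and diluted 3-fold over 10 points. 120 nL went onto 600 cells/well. After 72 hours, 40 μL CellTiter-Glo was added and luminescence read on EnVision after 30 min.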

[2] = target: T1, EGFR exon 20 NPG Ins D770_N771 (Ba/F3 cells); experiment: Inhibitor activity on EGFR-dependent cell growth (CellTiter-Glo, 72 h), Ba/F3 EGFR exon 20 NPG Ins; conditions: read-out: BaF3 NPG IC50
How it was run: (§1)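 IC50s derive from a sigmoidal dose–response fit of CellTiter-Glo signal. The signal was normalised between […]-treated cells and cell-free medium. Ba/F3 mutant-EGFR cells, seeded at 400–800/well depending on the line, had 72 h of exposure to a 10-point, 3-fold compound series.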

[3] = target: T3, EGFR exon 20 ASV Ins V769_D770 (Ba/F3 cells) (Homo sapiens, UniProt P00533, INS769ASV); experiment: Inhibitor activity on EGFR phosphorylation (pEGFR AlphaLISA, 2 h), Ba/F3 EGFR exon 20 ASV Ins; conditions: EGFR phosphorylation, AlphaLISA, 2 hours; read-out: ASV IC50 (pEGFR)
T3 construct: expressed in transfected cells; host or cells: Ba/F3 (murine pro-B cells), retroviral transduction, puromycin selection, IL3-independent pool
How it was run: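 IL3-independent Ba/F3 cells transduced with mutant EGFR (50K/well) or CUTO14 cells (12.5K/well) were treated 2 h with 10-point, 3-fold compound dilutions. Phospho-EGFR in lysates was measured by AlphaLISA to derive IC50.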

[4] = target: T4, EGFR exon 20 FQEA Ins A763_V764 (Ba/F3 cells) (Homo sapiens, UniProt P00533, INS763FQEA); experiment: Inhibitor activity on EGFR-dependent cell growth (CellTiter-Glo, 72 h), Ba/F3 EGFR exon 20 FQEA Ins; conditions: read-out: BaF3 FQEA IC50
T4 construct: expressed in transfected cells; host or cells: Ba/F3 (murine pro-B cells), retroviral transduction, puromycin selection, IL3-independent pool
How it was run: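 Ba/F3, retrovirally transduced, puromycin-selected, grown without IL3; cells/well: L858R 400, L858R/C797S 600, exon 19del 800, FQEA 800. Cpds from 10 mM DMSO stock, 3-fold ×10 dilution, 120 nL per well; 72 h. CTG readout; IC50 via Hill equation.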

[5] = target: T3, EGFR exon 20 ASV Ins V769_D770 (Ba/F3 cells); experiment: Inhibitor activity on EGFR-dependent cell growth (CellTiter-Glo, 72 h), Ba/F3 EGFR exon 20 ASV Ins; conditions: read-out: BaF3 ASV IC50
How it was run: as §1

[6] = target: T5, EGFR exon 20 SVD Ins D770_N771 (Ba/F3 cells) (Homo sapiens, UniProt P00533, INS770SVD); experiment: Inhibitor activity on EGFR-dependent cell growth (CellTiter-Glo, 72 h), Ba/F3 EGFR exon 20 SVD Ins; conditions: read-out: BaF3 SVD IC50
T5 construct: expressed in transfected cells; host or cells: Ba/F3 (murine pro-B cells), retroviral transduction, puromycin selection, IL3-independent pool
How it was run: as §1

T2 sequence (P00533 25-1210): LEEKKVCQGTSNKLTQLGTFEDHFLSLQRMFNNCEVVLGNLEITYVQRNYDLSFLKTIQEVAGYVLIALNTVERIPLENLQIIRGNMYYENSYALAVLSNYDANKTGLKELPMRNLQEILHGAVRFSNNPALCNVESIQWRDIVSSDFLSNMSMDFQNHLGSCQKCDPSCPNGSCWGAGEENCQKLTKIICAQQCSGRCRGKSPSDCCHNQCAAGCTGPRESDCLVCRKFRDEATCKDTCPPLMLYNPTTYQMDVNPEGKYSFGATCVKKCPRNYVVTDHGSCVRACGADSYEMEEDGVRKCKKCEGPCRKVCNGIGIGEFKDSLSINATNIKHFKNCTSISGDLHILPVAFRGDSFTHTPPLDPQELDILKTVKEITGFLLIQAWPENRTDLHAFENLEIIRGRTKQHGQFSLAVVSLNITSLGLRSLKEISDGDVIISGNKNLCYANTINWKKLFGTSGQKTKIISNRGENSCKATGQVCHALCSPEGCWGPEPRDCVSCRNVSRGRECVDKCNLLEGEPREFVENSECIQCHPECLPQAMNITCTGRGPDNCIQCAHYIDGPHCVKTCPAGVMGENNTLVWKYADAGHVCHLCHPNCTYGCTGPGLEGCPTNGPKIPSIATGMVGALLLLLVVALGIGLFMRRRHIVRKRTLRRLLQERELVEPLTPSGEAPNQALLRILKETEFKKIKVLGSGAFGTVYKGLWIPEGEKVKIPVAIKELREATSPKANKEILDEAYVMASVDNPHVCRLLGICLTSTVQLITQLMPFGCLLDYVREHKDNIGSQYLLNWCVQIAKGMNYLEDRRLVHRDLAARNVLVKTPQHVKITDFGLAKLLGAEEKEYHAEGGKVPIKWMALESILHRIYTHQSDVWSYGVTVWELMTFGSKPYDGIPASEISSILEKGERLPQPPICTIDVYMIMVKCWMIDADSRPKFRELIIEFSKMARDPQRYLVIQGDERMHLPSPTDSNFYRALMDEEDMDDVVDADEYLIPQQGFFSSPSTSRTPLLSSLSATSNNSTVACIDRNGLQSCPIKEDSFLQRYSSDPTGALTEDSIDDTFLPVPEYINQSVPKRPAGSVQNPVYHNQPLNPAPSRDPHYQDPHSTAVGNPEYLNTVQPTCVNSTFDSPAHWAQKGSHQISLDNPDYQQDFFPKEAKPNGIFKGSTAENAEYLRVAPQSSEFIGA
T1 sequence (P00533 with tags, fused parts or gaps INS770NPG): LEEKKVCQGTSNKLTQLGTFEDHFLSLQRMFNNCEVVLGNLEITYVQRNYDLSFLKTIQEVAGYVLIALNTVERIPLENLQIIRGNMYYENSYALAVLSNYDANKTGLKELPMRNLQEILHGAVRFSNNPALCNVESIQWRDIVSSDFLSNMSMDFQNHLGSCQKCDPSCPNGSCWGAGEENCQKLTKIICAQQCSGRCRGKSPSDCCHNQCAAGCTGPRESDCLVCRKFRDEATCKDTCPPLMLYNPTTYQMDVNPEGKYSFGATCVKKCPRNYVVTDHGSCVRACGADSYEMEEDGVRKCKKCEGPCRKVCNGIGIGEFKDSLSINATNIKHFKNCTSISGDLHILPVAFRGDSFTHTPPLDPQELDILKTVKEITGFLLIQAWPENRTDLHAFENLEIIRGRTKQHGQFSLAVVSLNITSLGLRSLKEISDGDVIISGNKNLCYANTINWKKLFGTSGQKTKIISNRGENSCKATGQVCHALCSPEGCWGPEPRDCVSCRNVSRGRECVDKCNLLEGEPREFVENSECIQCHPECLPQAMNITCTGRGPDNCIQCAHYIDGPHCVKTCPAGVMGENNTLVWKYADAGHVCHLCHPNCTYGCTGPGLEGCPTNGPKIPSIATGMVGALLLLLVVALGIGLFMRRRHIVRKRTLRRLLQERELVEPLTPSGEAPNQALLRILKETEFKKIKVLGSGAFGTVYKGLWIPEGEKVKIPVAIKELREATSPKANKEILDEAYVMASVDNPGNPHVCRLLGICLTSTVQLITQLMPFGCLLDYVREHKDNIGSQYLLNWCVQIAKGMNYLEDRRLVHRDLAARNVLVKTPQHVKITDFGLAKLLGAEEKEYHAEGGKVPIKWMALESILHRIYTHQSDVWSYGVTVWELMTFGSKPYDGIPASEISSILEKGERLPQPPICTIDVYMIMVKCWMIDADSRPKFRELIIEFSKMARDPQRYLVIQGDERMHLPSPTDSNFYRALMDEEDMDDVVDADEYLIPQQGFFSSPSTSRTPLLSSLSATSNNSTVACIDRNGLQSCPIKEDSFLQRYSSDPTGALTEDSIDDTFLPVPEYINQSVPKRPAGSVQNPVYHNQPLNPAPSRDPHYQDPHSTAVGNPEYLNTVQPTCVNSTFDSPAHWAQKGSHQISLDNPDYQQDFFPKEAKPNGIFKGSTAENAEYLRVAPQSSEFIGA
T3 sequence (P00533 with tags, fused parts or gaps INS769ASV): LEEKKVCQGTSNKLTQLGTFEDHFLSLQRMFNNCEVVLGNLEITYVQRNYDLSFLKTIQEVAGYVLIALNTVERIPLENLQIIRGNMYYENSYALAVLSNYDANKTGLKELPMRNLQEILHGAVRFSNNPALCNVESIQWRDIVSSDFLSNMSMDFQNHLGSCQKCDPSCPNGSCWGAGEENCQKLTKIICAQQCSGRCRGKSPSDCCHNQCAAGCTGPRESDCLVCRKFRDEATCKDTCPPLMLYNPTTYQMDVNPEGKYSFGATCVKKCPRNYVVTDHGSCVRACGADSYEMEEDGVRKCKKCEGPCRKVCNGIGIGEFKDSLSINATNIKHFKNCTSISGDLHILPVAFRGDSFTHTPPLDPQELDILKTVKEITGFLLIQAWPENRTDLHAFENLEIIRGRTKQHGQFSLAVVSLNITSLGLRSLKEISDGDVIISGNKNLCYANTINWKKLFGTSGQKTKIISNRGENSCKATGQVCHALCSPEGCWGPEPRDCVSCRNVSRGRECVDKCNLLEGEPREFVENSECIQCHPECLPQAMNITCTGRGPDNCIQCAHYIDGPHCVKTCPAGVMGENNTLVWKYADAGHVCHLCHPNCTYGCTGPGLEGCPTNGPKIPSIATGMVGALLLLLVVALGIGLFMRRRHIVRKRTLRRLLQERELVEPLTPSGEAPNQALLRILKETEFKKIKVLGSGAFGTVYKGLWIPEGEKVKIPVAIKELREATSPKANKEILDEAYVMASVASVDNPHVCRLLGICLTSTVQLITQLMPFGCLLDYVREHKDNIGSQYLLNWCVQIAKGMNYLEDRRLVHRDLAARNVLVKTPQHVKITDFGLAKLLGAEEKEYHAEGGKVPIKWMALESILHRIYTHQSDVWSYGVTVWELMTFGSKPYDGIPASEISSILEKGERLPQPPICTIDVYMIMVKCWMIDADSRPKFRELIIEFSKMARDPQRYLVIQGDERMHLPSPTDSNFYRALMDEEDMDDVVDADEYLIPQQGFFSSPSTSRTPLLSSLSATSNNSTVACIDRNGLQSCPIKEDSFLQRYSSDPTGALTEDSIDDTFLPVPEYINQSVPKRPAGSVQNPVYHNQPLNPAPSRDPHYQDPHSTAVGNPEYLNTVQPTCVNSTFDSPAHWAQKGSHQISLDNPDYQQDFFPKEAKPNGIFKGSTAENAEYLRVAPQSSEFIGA
T4 sequence (P00533 with tags, fused parts or gaps INS763FQEA): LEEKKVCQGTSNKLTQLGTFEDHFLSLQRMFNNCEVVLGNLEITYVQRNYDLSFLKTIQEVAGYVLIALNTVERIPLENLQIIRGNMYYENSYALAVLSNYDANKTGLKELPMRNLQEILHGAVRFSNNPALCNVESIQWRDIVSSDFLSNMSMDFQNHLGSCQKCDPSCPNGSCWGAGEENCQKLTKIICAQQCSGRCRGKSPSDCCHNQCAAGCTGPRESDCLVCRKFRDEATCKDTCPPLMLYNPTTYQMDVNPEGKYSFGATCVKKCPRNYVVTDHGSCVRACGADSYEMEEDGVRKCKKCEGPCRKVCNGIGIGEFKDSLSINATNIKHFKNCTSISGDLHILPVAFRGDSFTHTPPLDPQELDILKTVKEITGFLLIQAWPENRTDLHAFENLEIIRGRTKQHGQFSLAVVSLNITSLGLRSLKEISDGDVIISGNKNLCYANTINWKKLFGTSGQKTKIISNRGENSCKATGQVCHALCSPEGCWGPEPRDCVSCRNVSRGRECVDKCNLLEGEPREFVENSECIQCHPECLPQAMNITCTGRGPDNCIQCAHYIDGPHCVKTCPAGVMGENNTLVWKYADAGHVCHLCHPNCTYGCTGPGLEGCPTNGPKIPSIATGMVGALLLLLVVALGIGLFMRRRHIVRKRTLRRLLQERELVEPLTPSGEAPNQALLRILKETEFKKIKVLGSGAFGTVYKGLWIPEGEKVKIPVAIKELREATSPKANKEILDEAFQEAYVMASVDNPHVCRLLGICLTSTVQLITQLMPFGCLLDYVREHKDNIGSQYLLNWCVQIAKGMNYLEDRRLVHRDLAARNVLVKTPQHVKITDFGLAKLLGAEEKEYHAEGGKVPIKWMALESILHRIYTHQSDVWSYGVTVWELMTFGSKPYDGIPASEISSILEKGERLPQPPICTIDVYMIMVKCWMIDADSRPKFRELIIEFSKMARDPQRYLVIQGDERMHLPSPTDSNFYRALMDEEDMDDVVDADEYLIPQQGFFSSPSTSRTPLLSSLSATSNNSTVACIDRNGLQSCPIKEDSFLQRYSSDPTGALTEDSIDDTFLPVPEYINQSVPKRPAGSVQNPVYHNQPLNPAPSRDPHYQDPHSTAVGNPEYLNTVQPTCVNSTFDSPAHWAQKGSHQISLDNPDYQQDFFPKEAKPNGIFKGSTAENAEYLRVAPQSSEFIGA

| IC50 [1] [nM] | IC50 (EGFR WT (Ba/F3 cells)) [nM] | IC50 [2] [nM] | IC50 [3] [nM] | IC50 [4] [nM] | IC50 [5] [nM] | IC50 [6] [nM] | Compound |
| --- | --- | --- | --- | --- | --- | --- | --- |
| 100 to 1000 | < 100 | > 1000 | > 1000 | – | – | – | COc1c(F)cccc1Nc1c(-c2ncnc3cccnc23)[nH]c2c1C(=O)NCC2 [Compound 154, 3-((3-fluoro-2-methoxyphenyl)amino)-2-(pyrido[3,2-d]pyrimidin-4-yl)-1,5,6,7-tetrahydro-4H-pyrrolo[3,2-c]pyridin-4-one] |
| < 100 | < 100 | < 100 | < 100 | < 100 | < 100 | < 100 | COCCOc1ccc2nccc(-c3[nH]c4c(c3Nc3cccc(Cl)c3OC)C(=O)NCC4)c2n1 [compound 678, 3-[(3-chloro-2-methoxyphenyl)amino]-2-[6-(2-methoxyethoxy)-1,5-naphthyridin-4-yl]-1H,5H,6H,7H-pyrrolo[3,2-c]pyridin-4-one] |
| < 100 | > 1000 | 100 to 1000 | 100 to 1000 | 100 to 1000 | 100 to 1000 | 100 to 1000 | COc1c(Cl)cccc1Nc1c(-c2ccnc(NC(=O)C3CC3)n2)[nH]c2c1C(=O)NCC2 [compound 221] |
| < 100 | < 100 | < 100 | < 100 | < 100 | < 100 | < 100 | COc1c(Cl)cccc1Nc1c(-c2ccnc(Nc3cnn(C)c3)n2)[nH]c2c1C(=O)NCC2 [compound 109] |
| < 100 | 100 to 1000 | 100 to 1000 | < 100 | – | – | – | Cc1c(F)cccc1Nc1c(-c2ccnc(N)n2)[nH]c2c1C(=O)NCC2 [compound 282] |
| < 100 | < 100 | < 100 | < 100 | – | – | – | CNc1ccc2nccc(-c3[nH]c4c(c3Nc3cccc(Cl)c3OC)C(=O)NCC4)c2n1 [Compound 152, 3-((3-chloro-2-methoxyphenyl)amino)-2-(6-(methylamino)-1,5-naphthyridin-4-yl)-1,5,6,7-tetrahydro-4H-pyrrolo[3,2-c]pyridin-4-one] |
| < 100 | > 1000 | 100 to 1000 | < 100 | 100 to 1000 | 100 to 1000 | 100 to 1000 | COc1c(Cl)cccc1Nc1c(-c2ccnc3c2OCC(=O)N3)[nH]c2c1C(=O)NCC2 [compound 308] |
| < 100 | < 100 | 100 to 1000 | < 100 | – | – | – | CNc1nccc(-c2[nH]c3c(c2Nc2cccc(F)c2C)C(=O)NCC3)n1 [Compound 690, 3-[(3-fluoro-2-methylphenyl)amino]-2-[2-(methylamino)pyrimidin-4-yl]-1H,5H,6H,7H-pyrrolo[3,2-c]pyridin-4-one] |
| < 100 | 100 to 1000 | 100 to 1000 | < 100 | 100 to 1000 | 100 to 1000 | 100 to 1000 | Nc1nccc(-c2[nH]c3c(c2Nc2cccc(F)c2F)C(=O)NCC3)n1 [compound 202] |
| < 100 | > 1000 | 100 to 1000 | 100 to 1000 | 100 to 1000 | 100 to 1000 | 100 to 1000 | COc1c(F)cccc1Nc1c(-c2ccnc(N)c2F)[nH]c2c1C(=O)NCC2 [Compound 687, 2-(2-amino-3-fluoropyridin-4-yl)-3-[(3-fluoro-2-methoxyphenyl)amino]-1H,5H,6H,7H-pyrrolo[3,2-c]pyridin-4-one] |
| < 100 | 100 to 1000 | 100 to 1000 | 100 to 1000 | – | – | – | COc1c(Cl)cccc1Nc1c(-c2ccnc(C)n2)[nH]c2c1C(=O)NCC2 [compound 206] |
| < 100 | 100 to 1000 | 100 to 1000 | < 100 | 100 to 1000 | 100 to 1000 | 100 to 1000 | CCc1c(F)cccc1Nc1c(-c2ccnc(N)n2)[nH]c2c1C(=O)NCC2 [compound 195] |
| < 100 | 100 to 1000 | 100 to 1000 | 100 to 1000 | < 100 | – | – | Nc1nccc(-c2[nH]c3c(c2Nc2ccccc2)C(=O)NCC3)n1 [compound 283] |
| < 100 | 100 to 1000 | 100 to 1000 | < 100 | – | – | – | COc1ccc2nccc(-c3[nH]c4c(c3Nc3cccc(F)c3OC)C(=O)NCC43CCNCC3)c2n1 [compound 685] |
| < 100 | 100 to 1000 | < 100 | – | < 100 | < 100 | < 100 | COc1ccc2nccc(-c3[nH]c4c(c3Nc3cccc(F)c3C)C(=O)NCC4)c2n1 [Compound 684, 3-[(3-fluoro-2-methylphenyl)amino]-2-(6-methoxy-1,5-naphthyridin-4-yl)-1H,5H,6H,7H-pyrrolo[3,2-c]pyridin-4-one] |
| < 100 | 100 to 1000 | 100 to 1000 | – | < 100 | < 100 | < 100 | COc1c(Cl)cccc1Nc1c(-c2ccnc3ccc(OCC4CC(F)(F)C4)nc23)[nH]c2c1C(=O)NCC2 [compound 757, 3-[(3-chloro-2-methoxyphenyl)amino]-2-[6-[(3,3-difluorocyclobutyl)methoxy]-1,5-naphthyridin-4-yl]-1H,5H,6H,7H-pyrrolo[3,2-c]pyridin-4-one] |
| < 100 | > 1000 | 100 to 1000 | 100 to 1000 | 100 to 1000 | 100 to 1000 | 100 to 1000 | COc1c(Cl)cccc1Nc1c(-c2ccnc(NC(C)=O)n2)[nH]c2c1C(=O)NCC2 [compound 220] |
| < 100 | > 1000 | 100 to 1000 | < 100 | 100 to 1000 | 100 to 1000 | 100 to 1000 | COc1c(Cl)cccc1Nc1c(-c2ccnc(N)c2)[nH]c2c1C(=O)NCC2 [compound 285] |
| < 100 | > 1000 | 100 to 1000 | – | 100 to 1000 | 100 to 1000 | 100 to 1000 | COc1c(Cl)cccc1Nc1c(-c2ccnc3cnc(OCCN(C)C)nc23)[nH]c2c1C(=O)NCC2 [compound 502, 3-[(3-chloro-2-methoxyphenyl)amino]-2-{2-[2-(dimethylamino)ethoxy]pyrido[3,2-d]pyrimidin-8-yl}-1H,5H,6H,7H-pyrrolo[3,2-c]pyridin-4-one] |
